± gives the standard deviation of the averaged measurements.

Data on six test systems can be found in the supplement of paper PMC10331698.

What all share (assay): level (log10 ratio to DMSO vehicle control); higher = higher biomarker level / cell amount than vehicle control
Compound in test [1]: CO[Si](C)(CCC(F)(F)C(F)(F)C(F)(F)C(F)(F)C(F)(F)C(F)(F)F)OC [Dimethoxymethyl((perfluorohexyl)ethyl)silane] (in DMSO)
The procedure: (§1)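 BioMAP Diversity Plus panel of 12 human primary cell co-culture systems (3C, 4H, LPS, SAg, BT, BF4T, BE3C, CASM3C, HDF3CGF, KF3CT, MyoF, Mphg). Compounds were added 1 h before stimulation and left for 24 h (MyoF 48 h; BT 72 h for soluble read-outs or 6 d for IgG). Biomarkers were read by ELISA, cytotoxicity by SRB, PBMC viability and proliferation by Alamar Blue. Each well value was divided by the mean of 8 DMSO control wells on the same plate and log10 transformed; duplicate blinded samples were tested at 4 concentrations.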

Compound in test [2]: NS(=O)(=O)C(F)(F)C(F)(F)C(F)(F)C(F)(F)C(F)(F)C(F)(F)C(F)(F)C(F)(F)F [Perfluorooctanesulfonamide] (in DMSO)
Here is the method:
as §1

Compound in test [3]: OCCC(F)(F)C(F)(F)C(F)(F)C(F)(F)F [4:2 Fluorotelomer alcohol] (in DMSO)
The procedure:
as §1

Compound in test [4]: CN(C(=O)C(F)(F)C(F)(F)C(F)(F)F)[Si](C)(C)C [N-Methyl-N-trimethylsilylheptafluorobutyramide] (in DMSO)
Here is the method: as §1

Compound in test [5]: OCC(F)(F)OC(F)(F)C(F)(F)OC(F)(F)C(F)(F)OC(F)(F)CO [1H,1H,11H,11H-Perfluorotetraethylene glycol] (in DMSO)
The procedure:
as §1

Compound in test [6]: O=C(O)CCC(F)(C(F)(F)F)C(F)(F)F [4,4-bis(Trifluoromethyl)-4-fluoropropanoic acid] (in DMSO)
The procedure: as §1

Compound in test [7]: O=C(O)C=C(C(F)(F)F)C(F)(F)F [3,3-Bis(trifluoromethyl)-2-propenoic acid] (in DMSO)
Here is the method: as §1

Compound in another test: O=C(O)C(F)(F)C(F)(F)C(F)(F)C(F)(F)C(F)(F)C(F)(F)C(F)(F)C(F)(F)C(F)(F)C(F)(F)F [Perfluoroundecanoic acid] (in DMSO)
As to conditions: 6700 nM. Here is the method:
as §1

Regarding BE3C:Keratin 8/18, the “level (log10)” value was 0.0155 ± 0.011 in test [1] (6700 nM); 0.0075 ± 0.005 in test [1] (20000 nM); -0.0475 ± 0.013 in test [2] (6700 nM); -0.0185 ± 0.0021 in test [2] (20000 nM); -0.034 ± 0.057 in test [3] (6700 nM); -0.02 ± 0.02 in test [3] (20000 nM). Besides, the “level (log10)” value was 0.0085 ± 0.026 in test [3] (60000 nM); -0.013 ± 0.023 in test [4] (6700 nM); 0.001 ± 0.013 in test [4] (20000 nM); 0.019 ± 0.0085 in test [4] (60000 nM); 0.0025 ± 0.049 in test [5] (6700 nM); -0.0065 ± 0.00071 in test [5] (20000 nM). For the same test system, the “level (log10)” value in test [5] (60000 nM) is -0.023 ± 0.025; in test [6] (6700 nM), 0.011 ± 0.0028; in test [6] (20000 nM) it was -0.0005 ± 0.025; in test [6] (60000 nM) it was -0.0045 ± 0.011; in test [7] (6700 nM), -0.001 ± 0.0014; in test [7] (20000 nM), -0.0025 ± 0.005. In addition, the “level (log10)” value is 0.014 ± 0.031 in test [7] (60000 nM) and -0.045 ± 0.023 with Perfluoroundecanoic acid.

As for BE3C:MMP-1, the “level (log10)” value in test [1] (6700 nM) is -0.0085 ± 0.03; in test [1] (20000 nM), 0.034 ± 0.033; in test [2] (6700 nM) it was 0.084 ± 0.021; in test [2] (20000 nM), 0.154 ± 0.014; in test [3] (6700 nM) it was -0.023 ± 0.078; in test [3] (20000 nM), -0.023 ± 0.058. Further, the “level (log10)” value in test [3] (60000 nM) was 0.0145 ± 0.0064; in test [4] (6700 nM), -0.0015 ± 0.011; in test [4] (20000 nM), -0.02 ± 0.0071; in test [4] (60000 nM), 0.0295 ± 0.033; in test [5] (6700 nM) it was -0.001 ± 0.0057; in test [5] (20000 nM) it was 0.022. Further, the “level (log10)” value was 0.0915 ± 0.057 in test [5] (60000 nM); 0.0065 ± 0.035 in test [6] (6700 nM); 0.0105 ± 0.059 in test [6] (20000 nM); 0.006 ± 0.045 in test [6] (60000 nM); -0.066 ± 0.0099 in test [7] (6700 nM); -0.0425 ± 0.005 in test [7] (20000 nM). Besides, the “level (log10)” value in test [7] (60000 nM) is 0.0305 ± 0.073; in the test with Perfluoroundecanoic acid, 0.135 ± 0.011.

In the case of BE3C:MMP-9, the “level (log10)” value is -0.006 ± 0.0042 in test [1] (6700 nM); -0.017 ± 0.013 in test [1] (20000 nM); -0.101 ± 0.016 in test [2] (6700 nM); -0.131 ± 0.0014 in test [2] (20000 nM); 0.0015 ± 0.0078 in test [3] (6700 nM); -0.014 ± 0.013 in test [3] (20000 nM). The “level (log10)” value in test [3] (60000 nM) is 0.009 ± 0.011; in test [4] (6700 nM) it was -0.023 ± 0.0042; in test [4] (20000 nM) it was -0.012 ± 0.0085; in test [4] (60000 nM), 0.015 ± 0.02; in test [5] (6700 nM) it was 0 ± 0.017; in test [5] (20000 nM), -0.0345 ± 0.0021. In addition, the “level (log10)” value in test [5] (60000 nM) is -0.0795 ± 0.0035; in test [6] (6700 nM), 0.0085 ± 0.035; in test [6] (20000 nM), -0.024 ± 0.0042; in test [6] (60000 nM), -0.003 ± 0.03; in test [7] (6700 nM) it was -0.0425 ± 0.005; in test [7] (20000 nM) it was -0.0735 ± 0.0021. Further, the “level (log10)” value is -0.079 ± 0.027 in test [7] (60000 nM) and -0.139 ± 0.013 in the test with Perfluoroundecanoic acid.

For BE3C:PAI-I, the “level (log10)” value in test [1] (6700 nM) was 0.009 ± 0.033; in test [1] (20000 nM), -0.0245 ± 0.023; in test [2] (6700 nM), -0.194 ± 0.03; in test [2] (20000 nM) it was -0.202 ± 0.016; in test [3] (6700 nM) it was -0.0355 ± 0.023; in test [3] (20000 nM), -0.03 ± 0.045. Also, the “level (log10)” value in test [3] (60000 nM) was 0.0365 ± 0.016; in test [4] (6700 nM), -0.0045 ± 0.047; in test [4] (20000 nM), -0.013 ± 0.017; in test [4] (60000 nM) it was -0.012 ± 0.02; in test [5] (6700 nM) it was 0.0145 ± 0.012; in test [5] (20000 nM), -0.0035 ± 0.021. Moreover, the “level (log10)” value in test [5] (60000 nM) is -0.072 ± 0.018; in test [6] (6700 nM), 0.009 ± 0.018; in test [6] (20000 nM), -0.004 ± 0.018; in test [6] (60000 nM) it was 0.006 ± 0.061; in test [7] (6700 nM), -0.043 ± 0.0042; in test [7] (20000 nM) it was -0.0315 ± 0.005. In addition, the entries for the “level (log10)” value (in test [7] (60000 nM); with Perfluoroundecanoic acid) were -0.0085 ± 0.032 and -0.292 ± 0.023, respectively.

For BE3C:SRB, the “level (log10)” value in test [1] (6700 nM) is -0.0035 ± 0.0035; in test [1] (20000 nM), -0.003 ± 0.0042; in test [2] (6700 nM) it was -0.0145 ± 0.0021; in test [2] (20000 nM) it was -0.0315 ± 0.00071; in test [3] (6700 nM), -0.004; in test [3] (20000 nM) it was -0.001 ± 0.0014. In addition, the “level (log10)” value in test [3] (60000 nM) was -0.0005 ± 0.005; in test [4] (6700 nM) it was -0.006 ± 0.0057; in test [4] (20000 nM), -0.003 ± 0.0028; in test [4] (60000 nM), 0 ± 0.0028; in test [5] (6700 nM), -0.004 ± 0.0057; in test [5] (20000 nM) it was -0.0055 ± 0.00071. Besides, the “level (log10)” value in test [5] (60000 nM) is -0.0115 ± 0.00071; in test [6] (6700 nM), 0.003 ± 0.0014; in test [6] (20000 nM), -0.001 ± 0.0057; in test [6] (60000 nM), 0.018 ± 0.0085; in test [7] (6700 nM), -0.005 ± 0.0042; in test [7] (20000 nM), -0.0025 ± 0.0035. Also, the “level (log10)” value is 0.01 ± 0.0057 in test [7] (60000 nM) and -0.0555 ± 0.012 in the test with Perfluoroundecanoic acid.

As for BE3C:tPA, the “level (log10)” value in test [1] (6700 nM) is 0.0005 ± 0.026; in test [1] (20000 nM), -0.026 ± 0.037; in test [2] (6700 nM), 0.0025 ± 0.035; in test [2] (20000 nM), -0.058 ± 0.055; in test [3] (6700 nM), -0.0115 ± 0.0035; in test [3] (20000 nM) it was -0.015. For the same test system, the “level (log10)” value in test [3] (60000 nM) was 0.013 ± 0.016; in test [4] (6700 nM), -0.018 ± 0.025; in test [4] (20000 nM) it was -0.0275 ± 0.0064; in test [4] (60000 nM), -0.0195 ± 0.011; in test [5] (6700 nM), -0.0145 ± 0.035; in test [5] (20000 nM) it was -0.0265 ± 0.044. In addition, the “level (log10)” value is -0.008 ± 0.061 in test [5] (60000 nM); 0.02 ± 0.075 in test [6] (6700 nM); -0.001 ± 0.044 in test [6] (20000 nM); -0.025 ± 0.027 in test [6] (60000 nM); -0.16 ± 0.041 in test [7] (6700 nM); -0.166 ± 0.0042 in test [7] (20000 nM). The entries for the “level (log10)” value (in test [7] (60000 nM); with Perfluoroundecanoic acid) were -0.179 ± 0.073 and 0.003 ± 0.0028, respectively.
